Some results are limits rather than exact numbers.

T1 sequence (P08581 25-1390): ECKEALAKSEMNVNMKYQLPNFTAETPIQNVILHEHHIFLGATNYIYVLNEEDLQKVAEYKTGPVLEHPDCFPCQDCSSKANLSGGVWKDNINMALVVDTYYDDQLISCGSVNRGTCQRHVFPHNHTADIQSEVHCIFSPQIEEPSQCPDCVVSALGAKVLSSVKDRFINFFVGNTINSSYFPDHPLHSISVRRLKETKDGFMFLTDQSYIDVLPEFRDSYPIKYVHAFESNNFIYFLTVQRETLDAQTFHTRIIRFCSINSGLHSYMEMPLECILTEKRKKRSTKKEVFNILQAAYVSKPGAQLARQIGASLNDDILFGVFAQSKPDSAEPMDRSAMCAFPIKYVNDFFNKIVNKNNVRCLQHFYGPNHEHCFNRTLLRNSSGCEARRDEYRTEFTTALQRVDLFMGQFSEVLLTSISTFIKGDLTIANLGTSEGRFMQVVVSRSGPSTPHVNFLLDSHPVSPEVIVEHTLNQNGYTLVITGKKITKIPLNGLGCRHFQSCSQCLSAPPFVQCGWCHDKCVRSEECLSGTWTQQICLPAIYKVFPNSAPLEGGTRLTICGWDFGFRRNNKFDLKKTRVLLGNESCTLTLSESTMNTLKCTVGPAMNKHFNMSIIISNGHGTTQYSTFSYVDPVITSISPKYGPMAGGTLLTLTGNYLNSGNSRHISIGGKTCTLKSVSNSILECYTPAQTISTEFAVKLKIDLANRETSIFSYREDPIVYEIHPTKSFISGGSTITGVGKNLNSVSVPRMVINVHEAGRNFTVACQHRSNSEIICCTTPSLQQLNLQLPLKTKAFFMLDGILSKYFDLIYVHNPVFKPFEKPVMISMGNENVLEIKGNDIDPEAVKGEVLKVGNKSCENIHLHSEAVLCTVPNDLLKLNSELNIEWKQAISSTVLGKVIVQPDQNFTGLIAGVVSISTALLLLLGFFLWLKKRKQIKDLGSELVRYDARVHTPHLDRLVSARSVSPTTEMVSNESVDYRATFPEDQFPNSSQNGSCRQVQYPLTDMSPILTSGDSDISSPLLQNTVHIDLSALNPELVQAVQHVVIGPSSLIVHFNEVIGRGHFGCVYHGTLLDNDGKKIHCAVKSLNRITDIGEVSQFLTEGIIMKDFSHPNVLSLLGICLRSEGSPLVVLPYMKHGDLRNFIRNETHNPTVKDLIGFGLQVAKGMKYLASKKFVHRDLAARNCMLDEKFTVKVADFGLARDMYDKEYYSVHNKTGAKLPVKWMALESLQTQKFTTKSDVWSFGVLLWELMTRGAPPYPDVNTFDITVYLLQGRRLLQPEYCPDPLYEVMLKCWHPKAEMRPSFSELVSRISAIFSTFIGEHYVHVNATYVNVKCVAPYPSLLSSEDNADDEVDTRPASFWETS

The experiment concerns the target T1, c-Met kinase (recombinant c-Met) (Homo sapiens, UniProt P08581).
T1 construct: 0.27 nM recombinant c-Met
In words: In vitro kinase assay I (homogeneous time-resolved fluorescence tyrosine kinase assay). Type of experiment: biochemical. In outline: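 Biotinylated peptide (0.5 μM) phosphorylated by 0.2 nM recombinant c-Met with 50 μM MgATP, 60 min at room temperature, pH 7.4, 5% DMSO. EDTA stop; HTRF read with Eu-anti-phosphotyrosine antibody and streptavidin-APC. IC50 from 4-parameter logistic fit.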
For `CC(c1cccc(-c2ncc(Br)cn2)c1)c1nn(-c2cnn(C)c2)ccc1=O` (single isomer, unassigned) [Example 241, 3-{(1S or R)-1-[3-(5-bromopyrimidin-2-yl)pheny]ethyl)}-1-(1-methyl-1H-pyrazol-4-yl)pyridazin-4(1H)-one], the IC50 (commonly the concentration at which inhibition is half-maximal) fell in the range of 100 to 1000 nM.

As to `CC(c1cccc(-c2ncc(Br)cn2)c1)c1nn(-c2cnn(C)c2)ccc1=O` (single isomer, unassigned) [Example 242, 3-{(1R or S)-1-[3-(5-bromopyrimidin-2-yl)phenyl]ethyl}-1-(1-methyl-1H-pyrazol-4-yl)pyridazin-4(1H)-one], the IC50 is under 100 nM.

Take `CC(c1cccc(-c2ncc(N3CCOCC3)cn2)c1)c1nn(-c2cnn(C)c2)ccc1=O` (single isomer, unassigned) [Example 243, 1,1-methyl-1H-pyrazol-4-yl)-3-{(1S or R)-1-[3-(5-morpholin-4-ylpyrimidin-2-yl)phenyl]ethyl}pyridazin-4(1H) one]: the IC50 was under 100 nM.

Consider `CC(c1cccc(-c2ncc(N3CCOCC3)cn2)c1)c1nn(-c2cnn(C)c2)ccc1=O` (single isomer, unassigned) [Example 244, 1-(1-methyl-1H-pyrazol-4-yl)-3-{(1R or S)-1-[3-(5-morpholin-4-ylpyrimidin-2-yl)phenyl]ethyl}pyridazin-4(1H)-one], for which the IC50 lay in the range of 100 to 1000 nM.

On to `CCOc1cnc(-c2cccc(C(C)c3nn(-c4cnn(CC)c4)ccc3=O)c2)nc1` (single isomer, unassigned) [Example 245, 3-{(1S or R)-1-[3-(5-ethoxypyrimidin-2-yl)phenyl]ethyl}-1-(1-ethyl-1H-pyrazol-4-yl)pyridazin-4(1H)-one], for which the IC50 was 100 to 1000 nM.

Consider `CCOc1cnc(-c2cccc(C(C)c3nn(-c4cnn(CC)c4)ccc3=O)c2)nc1` (single isomer, unassigned) [Example 246, 3-{(1R or S)-1-[3-(5-ethoxypyrimidin-2-yl)phenyl]ethyl}-1-(1-ethyl-1H-pyrazol-4-yl)pyridazin-4(1H)-one], for which the half-maximal inhibitory concentration (IC50) is under 100 nM.

In the case of `CCn1cc(-n2ccc(=O)c(C(C)c3cccc(-c4ncc(OCCOC)cn4)c3)n2)cn1` (single isomer, unassigned) [Example 247, 1-(1-ethyl-1H-pyrazol-4-yl)-3-((1S or R)-1-{3-[5-(2-methoxyethoxy)primidin-2-yl]phenyl}ethyl)pyridazin-4(1H)-one], the IC50 was in the range of 100 to 1000 nM.

As for `CCn1cc(-n2ccc(=O)c(C(C)c3cccc(-c4ncc(OCCOC)cn4)c3)n2)cn1` (single isomer, unassigned) [Example 248, 1-(1-ethyl-1H-pyrazol-4-yl)-3-((1R or S)-1-{3-[5-(2-methoxyethoxy)pyrimidin-2-yl]phenyl}ethyl)pyridazin-4(1H)-one], the IC50 was under 100 nM.

For `CC(c1cccc(-c2ncc(OCC(C)(C)O)cn2)c1)c1nn(-c2ccc(F)c(F)c2)ccc1=O` (single isomer, unassigned) [Example 249, 1-(3,4-difluorophenyl)-3-[(1S or R)-1-{3-[5-(2-hydroxy-2-methylpropoxy)pyrimidin-2-yl]phenyl}ethyl]pyridazin-4(1H)-one], the IC50 lay within 100 to 1000 nM.

`CC(c1cccc(-c2ncc(OCC(C)(C)O)cn2)c1)c1nn(-c2ccc(F)c(F)c2)ccc1=O` (single isomer, unassigned) [Example 250, 1-(3,4-difluorophenyl)-3-[(1R or S)-1-{3-[5-(2-hydroxy-2-methylpropoxy)pyrimidin-2-yl]phenyl}ethyl]pyridazin-4(1H)-one]: the IC50 is under 100 nM.

For `COC(C)(C)COc1cnc(-c2cccc(C(C)c3nn(-c4ccc(F)c(F)c4)ccc3=O)c2)nc1` (single isomer, unassigned) [Example 251, 1-(3,4-difluorophenyl)-3-[(1S or R)-1-{3-[5-(2-methoxy-2-methylpropoxy)pyrimidin-2-yl]phenyl}ethyl]pyridazin-4(1H)-one], the IC50 was under 100 nM.

As for `COC(C)(C)COc1cnc(-c2cccc(C(C)c3nn(-c4ccc(F)c(F)c4)ccc3=O)c2)nc1` (single isomer, unassigned) [Example 252, 1-(3,4-difluorophenyl)-3-[(1R or S)-1-{3-[5-(2-methoxy-2-methylpropoxy)pyrimidin-2-yl]phenyl}ethyl]pyridazin-4(1H)-one], the IC50 was under 100 nM.

Consider `CCOc1cnc(-c2cccc(C(C)c3nn(-c4cnn(CCO)c4)ccc3=O)c2)nc1` (single isomer, unassigned) [Example 255, 3-{(1S or R)-1-[3-(5-Ethoxypyrimidin-2-yl)phenyl]ethyl}-1-[1-(2-hydroxyethyl)-1H-pyrazol-4-yl]pyridazin-4(1H)-one], for which the IC50 lay within 100 to 1000 nM.

Consider `CCOc1cnc(-c2cccc(C(C)c3nn(-c4cnn(CCO)c4)ccc3=O)c2)nc1` (single isomer, unassigned) [Example 256, 3-{(1R or S)-1-[3-(5-ethoxypyrimidin-2-yl)phenyl]ethyl}-1-[1-(2-hydroxyethyl)-1H-pyrazol-4-yl]pyridazin-4(1H)-one], for which the IC50 was under 100 nM.

`CCn1cc(-n2ccc(=O)c(C(C)c3cccc(-c4ncc(O)cn4)c3)n2)cn1` (single isomer, unassigned) [Example 257, 1-(1-ethyl-1H-pyrazol-4-yl)-3-{(1S or R)-1-[3-(5-hydroxypyrimidin-2-yl)phenyl]ethyl}pyridazin-4(1H)-one]: the half-inhibitory concentration (IC50) fell in the range of 1000 to 3000 nM.

Take `CCn1cc(-n2ccc(=O)c(C(C)c3cccc(-c4ncc(O)cn4)c3)n2)cn1` (single isomer, unassigned) [Example 258, 1-(1-ethyl-1H-pyrazol-4-yl)-3-{(1R or S)-1-[3-(5-hydroxypyrimidin-2-yl)phenyl]ethyl}pyridazin-4(1H)-one]: the IC50 was under 100 nM.

`CCn1cc(-n2ccc(=O)c(C(C)c3cccc(-c4ncc(OCC5(F)CCN(C(=O)OC(C)(C)C)CC5)cn4)c3)n2)cn1` (single isomer, unassigned) [Example 290, tert-butyl 4-({[2-(3-{(1R or S)-1-[1-(1-ethyl-1H pyrazol-4-yl)-4-oxo-1,4-dihydropyridazin-3-yl]ethyl}phenyl)pyrimidin-5-yl]oxy}methyl)-4-fluoropiperidine-1-carboxylate]: the IC50 is under 100 nM.

For `CCn1cc(-n2ccc(=O)c(C(C)c3cccc(-c4ncc(OCC5CCN(C(=O)OC(C)(C)C)CC5)cn4)c3)n2)cn1` (single isomer, unassigned) [Example 291, tert-butyl 4-({[2-(3-{(1R or S)-1-[1-(1-ethyl-1H-pyrazol-4-yl)-4-oxo-1,4-dihydropyridazin-3-yl]ethyl}phenyl)pyrimidin-5-yl]oxy}methyl)piperidine-1-carboxylate], the IC50 was under 100 nM.

With `CCn1cc(-n2ccc(=O)c(C(C)c3cccc(-c4ncc(OC5CN(C(=O)OC(C)(C)C)C5)cn4)c3)n2)cn1` (single isomer, unassigned) [Example 292, tert-butyl 3-{[2-(3-{(1R or S)-1-[1-(1-ethyl-1H-pyrazol-4-yl)-4-oxo-1,4-dihydropyridazin-3-yl]ethyl}phenyl)pyrimidin-5-yl]oxy}azetidine-1-carboxylate], the IC50 is under 100 nM.

In the case of `CCn1cc(-n2ccc(=O)c(C(C)c3cccc(-c4ncc(OC(C)C)cn4)c3)n2)cn1` (single isomer, unassigned) [Example 293, 1-(1-ethyl-1H-pyrazol-4-yl)-3-[(1R or S)-1-{3-[5-(1-methylethoxy)pyrimidin-2-yl]phenyl}ethyl]pyridazin-4(1H)-one], the half-maximal inhibitory concentration (IC50) is under 100 nM.

`CCn1cc(-n2ccc(=O)c(C(C)c3cccc(-c4ncc(OCC(F)F)cn4)c3)n2)cn1` (single isomer, unassigned) [Example 294, 3-[(1R or S)-1-{3-[5-(2,2-difluoroethoxy)pyrimidin-2-yl]phenyl}ethyl]-1-(1-ethyl-1H-pyrazol-4-yl)pyridazin-4(1H)-one]: the IC50 is under 100 nM.

As to `CCn1cc(-n2ccc(=O)c(C(C)c3cccc(-c4ncc(OCCO)cn4)c3)n2)cn1` (single isomer, unassigned) [Example 295, 1-(1-ethyl-1H-pyrazol-4-yl)-3-[(1R or S)-1-{3-[5-(2-hydroxyethoxy)pyrimidin-2-yl]phenyl}ethyl]pyridazin-4(1H)-one], the half-maximal inhibitory concentration (IC50) is under 100 nM.

For the compound `CCn1cc(-n2ccc(=O)c(C(C)c3cccc(-c4ncc(OCC5CCO5)cn4)c3)n2)cn1` (single isomer, unassigned) [Example 296, 1-(1-ethyl-1H-pyrazol-4-yl)-3-[(1R or S)-1-{3-[5-(oxetan-2-ylmethoxy)primidin-2-yl]phenyl}ethyl]pyridazin-4(1H)-one], the IC50 was under 100 nM.

Regarding `CCn1cc(-n2ccc(=O)c(C(C)c3cccc(-c4ncc(OC5CCOC5)cn4)c3)n2)cn1` (single isomer, unassigned) [Example 297, 1-(1-ethyl-1H-pyrazol-4-yl)-3-[(1R or S)-1-{3-[5-(tetrahydrofuran-3-yloxy)pyrimidin-2-yl]phenyl}ethyl]pyridazin-4(1H)-one], the IC50 was under 100 nM.

As for `CCn1cc(-n2ccc(=O)c(C(C)c3cccc(-c4ncc(OCC5CCCO5)cn4)c3)n2)cn1` (single isomer, unassigned) [Example 298, 1-(1-ethyl-1H-pyrazol-4-yl)-3-[(1R or S)-1-{3-[5-(tetrahydrofuran-2-ylmethoxy)pyrimidin-2-yl]phenyl}ethyl]pyridazin-4(1H)-one], the IC50 was under 100 nM.

On to `CCn1cc(-n2ccc(=O)c(C(C)c3cccc(-c4ncc(OCC5COCCO5)cn4)c3)n2)cn1` (single isomer, unassigned) [Example 299, 3-[(1R or S)-1-{3-[5-(1,4-dioxan-2-ylmethoxy)pyrimidin-2-yl]phenyl}ethyl]-1-(1-ethyl-1H-pyrazol-4-yl)pyriazin-4(1H)-one], for which the IC50 was under 100 nM.

Turning to `CCn1cc(-n2ccc(=O)c(C(C)c3cccc(-c4ncc(OCCN5CCOCC5)cn4)c3)n2)cn1` (single isomer, unassigned) [Example 300, 1-(1-ethyl-1H-pyrazol-4-yl)-3-[(1R or S)-1-{3-[5-(2-morpholin-4-ylethoxy)pyrimidin-2-yl]phenyl}ethyl]pyridazin-4(1H)-one], the 50% inhibitory concentration (IC50) is under 100 nM.
